# Tested on: blood vessels within the dorsal window chamber
# Type: in vivo, Syrian golden hamsters
# Conditions: 150 kD FITC-Dextran conjugate; fluorescence microscopy
# Description: Syrian golden hamsters (Charles River Laboratories, Kingston, N.Y.) weighing between 60-70 gram were surgically implanted with titanium back-pack window chambers as described ([…] et al., 1980; Colantuoni et al., 1984; […] et al., 1994). Prior to the surgical procedure, the dorsal surface of the mouse was shaved with electric clippers (Sunbeam Oster 2-Speed, 150 Cadillac Lane, McMinnville, Tenn., 37110) and then the shaved skin covered in a depilatory cream (Nair, Carter Products, New York, N.Y., 10105) for 10 minutes to remove the remaining hair. A dorsal skin fold consisting of two layers of skin and muscle tissue was then sandwiched between two opposing titanium frames (Campus Research Machine Shop, University of California, San Diego 9500 Gilman Drive, La Jolla, Calif.) with a 15 mm circular opening in each. Layers of skin and muscle fascia were separated from the sub-cutaneous tissue, and removed until a thin monolayer of muscle and one layer of intact skin remained. A coverglass (Type Circle 1, Part #12-545-80 sourced from Fisher Scientific, 2761 Walnut Avenue, Tustin, Calif., 92780) held by an expansion ring in the circular window of one titanium frame was then placed on the exposed tissue to allow direct microscopic visualization of the vasculature. The window in the second opposing titanium frame was left open exposing the intact skin. Two days following the implantation of the titanium chamber, an in-dwelling PE10 catheter (VVR Scientific, Westchester, Pa.) was implanted in the carotid artery. The catheter tubing was passed sub-cutaneously from the ventral to the dorsal side of the neck, and exteriorized through the skin at the base of the chamber. The patency of the catheter was ensured by daily flushing of the in-dwelling implanted tip with 0.005-0.01 ml of heparinized saline (40 IU/ml). The heparin was sourced from Upjohn Co., 100 Route […], Prepack, N.J., 07977, and the saline from Abbott Laboratories, North Chicago, Ill., 60064. Microvascular observations using an intra-vital microscope were not undertaken until at least 4 days post-chamber implantation to mitigate against post-surgical trauma, and to confirm that blood vessels within the chamber were functioning and intact and patent. A chamber was considered suitable for subsequent studies if microscopic examination of the preparation met the following criteria (as applied in […] et al., 1994): The intra-vital microscopic studies were undertaken on un-sedated animals held in a Plexiglass tube (Campus Research Machine Shop, University of California, San Diego 9500 Gilman Drive, La Jolla, Calif.) from which the window chamber sandwich protruded horizontally, allowing visualization of the chamber on the microscope stage. The Plexiglass tube acted to restrain the animals without impeding respiration. The intra-vital microscopy was performed using a Leitz Ortholux II (McBain Instruments, Inc., 9601 […] Avenue, Chatsworth, Calif., 91311) fitted with a Leitz Wetzlar 25× saline immersion objective lens, 0.6 numerical aperture (McBain Instruments, Inc., 9601 […] Avenue, Chatsworth, Calif., 91311), a Leitz Wetzlar 10× dry Planfluotar lens, 0.3 numerical aperture (McBain Instruments, Inc., 9601 […] Avenue, Chatsworth, Calif., 91311) and a Leitz Wetzlar 4× EF dry lens, 0.12 numerical aperture (McBain Instruments, Inc., 9601 […] Avenue, Chatsworth, Calif., 91311). A 100 Watt Hg light source (Olympus Corporation, 2 Corporate Center Drive, Melville, N.Y., 11747-3157) was used for both trans- and epi-illumination. For the trans-illumination studies the light was filtered using a 420 nm blue filter which selectively passed light in the region of the maximum absorbance band of hemoglobin, causing the red blood cells to appear as dark objects against a gray background. In addition, a heat filter was placed in the light path prior to the condenser to prevent hyperthermic effects on the tissue being examined.
substance,measurement,value
"fluorescein diisothiocyanate dextran [FITC-Dextran, reference compound]",Retention of the molecule in the treated tissue field following PhotoPoint-induced release from the vasculature,at least 48 hrs

# — US20040044304A1, “Local drug delivery using photosensitizer-mediated and electromagnetic radiation enhanced vascular permeability” (priority 2002, published 2004)
